We go through eleven compounds from patent US8129417B2, “Substituted octahydrocyclopenta[C]pyrrol-4-amines as calcium channel blockers” (Abbott Laboratories, priority 2008, dated 2012).

Chain of human Cav2.2 (Q00975 whole entry): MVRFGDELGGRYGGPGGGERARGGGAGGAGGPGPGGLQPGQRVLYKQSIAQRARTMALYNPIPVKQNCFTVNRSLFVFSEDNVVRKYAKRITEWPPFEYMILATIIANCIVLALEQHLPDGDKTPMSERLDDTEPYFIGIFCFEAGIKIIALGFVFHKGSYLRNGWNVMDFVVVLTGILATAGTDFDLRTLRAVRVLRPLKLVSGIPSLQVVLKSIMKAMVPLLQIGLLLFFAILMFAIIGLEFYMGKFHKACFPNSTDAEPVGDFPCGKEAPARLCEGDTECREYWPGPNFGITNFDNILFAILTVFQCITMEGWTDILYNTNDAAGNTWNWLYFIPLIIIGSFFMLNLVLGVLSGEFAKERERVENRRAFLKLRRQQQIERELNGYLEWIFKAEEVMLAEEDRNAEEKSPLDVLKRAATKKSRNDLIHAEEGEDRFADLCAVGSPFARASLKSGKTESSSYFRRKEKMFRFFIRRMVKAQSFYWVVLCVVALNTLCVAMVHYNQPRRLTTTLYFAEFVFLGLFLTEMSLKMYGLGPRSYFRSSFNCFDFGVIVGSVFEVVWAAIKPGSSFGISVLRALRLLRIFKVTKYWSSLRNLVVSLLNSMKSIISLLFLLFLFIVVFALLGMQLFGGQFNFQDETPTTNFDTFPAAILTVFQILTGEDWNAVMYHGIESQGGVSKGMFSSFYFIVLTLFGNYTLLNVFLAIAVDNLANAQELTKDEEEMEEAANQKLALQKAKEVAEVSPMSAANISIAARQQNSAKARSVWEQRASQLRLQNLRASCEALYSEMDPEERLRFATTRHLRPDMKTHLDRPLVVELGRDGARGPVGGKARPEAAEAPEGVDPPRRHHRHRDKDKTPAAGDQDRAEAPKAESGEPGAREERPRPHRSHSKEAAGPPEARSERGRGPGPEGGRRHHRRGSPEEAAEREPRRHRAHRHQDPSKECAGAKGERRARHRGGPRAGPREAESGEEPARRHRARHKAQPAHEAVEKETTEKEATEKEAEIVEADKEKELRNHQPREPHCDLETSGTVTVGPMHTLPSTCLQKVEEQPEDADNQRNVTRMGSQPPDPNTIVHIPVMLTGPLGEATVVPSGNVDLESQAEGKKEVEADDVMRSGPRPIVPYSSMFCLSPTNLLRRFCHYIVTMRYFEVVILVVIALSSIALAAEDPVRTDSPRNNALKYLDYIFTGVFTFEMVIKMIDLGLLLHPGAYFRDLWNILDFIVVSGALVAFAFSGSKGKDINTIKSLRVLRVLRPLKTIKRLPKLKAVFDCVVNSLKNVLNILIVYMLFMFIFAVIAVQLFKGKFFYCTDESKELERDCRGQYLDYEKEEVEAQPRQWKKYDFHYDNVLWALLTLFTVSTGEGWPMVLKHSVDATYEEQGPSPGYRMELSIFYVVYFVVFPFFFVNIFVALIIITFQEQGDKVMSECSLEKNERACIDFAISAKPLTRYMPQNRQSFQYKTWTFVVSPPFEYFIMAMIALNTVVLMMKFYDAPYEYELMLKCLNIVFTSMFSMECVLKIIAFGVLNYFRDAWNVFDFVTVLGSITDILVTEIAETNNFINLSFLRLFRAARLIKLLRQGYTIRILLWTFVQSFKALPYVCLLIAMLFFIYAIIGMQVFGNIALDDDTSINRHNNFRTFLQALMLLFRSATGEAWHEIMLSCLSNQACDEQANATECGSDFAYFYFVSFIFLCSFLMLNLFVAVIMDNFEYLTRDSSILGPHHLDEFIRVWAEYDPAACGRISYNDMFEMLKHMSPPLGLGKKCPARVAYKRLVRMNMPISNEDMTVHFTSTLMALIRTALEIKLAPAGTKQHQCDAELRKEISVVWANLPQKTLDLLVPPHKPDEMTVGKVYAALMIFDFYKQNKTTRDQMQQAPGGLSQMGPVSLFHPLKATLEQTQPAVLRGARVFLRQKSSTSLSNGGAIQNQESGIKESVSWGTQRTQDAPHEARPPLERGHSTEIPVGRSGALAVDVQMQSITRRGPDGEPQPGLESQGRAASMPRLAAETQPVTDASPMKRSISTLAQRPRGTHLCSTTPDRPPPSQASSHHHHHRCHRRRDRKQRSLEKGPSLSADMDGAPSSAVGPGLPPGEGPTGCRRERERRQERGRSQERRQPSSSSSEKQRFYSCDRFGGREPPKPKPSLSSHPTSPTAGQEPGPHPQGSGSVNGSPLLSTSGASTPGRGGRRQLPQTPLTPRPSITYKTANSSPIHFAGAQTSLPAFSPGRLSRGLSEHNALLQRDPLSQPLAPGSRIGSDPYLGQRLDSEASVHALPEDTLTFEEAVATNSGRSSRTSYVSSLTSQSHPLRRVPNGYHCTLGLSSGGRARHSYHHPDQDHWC
Chain of human Cav2.2 (P54289 25-946 partner limits assumed): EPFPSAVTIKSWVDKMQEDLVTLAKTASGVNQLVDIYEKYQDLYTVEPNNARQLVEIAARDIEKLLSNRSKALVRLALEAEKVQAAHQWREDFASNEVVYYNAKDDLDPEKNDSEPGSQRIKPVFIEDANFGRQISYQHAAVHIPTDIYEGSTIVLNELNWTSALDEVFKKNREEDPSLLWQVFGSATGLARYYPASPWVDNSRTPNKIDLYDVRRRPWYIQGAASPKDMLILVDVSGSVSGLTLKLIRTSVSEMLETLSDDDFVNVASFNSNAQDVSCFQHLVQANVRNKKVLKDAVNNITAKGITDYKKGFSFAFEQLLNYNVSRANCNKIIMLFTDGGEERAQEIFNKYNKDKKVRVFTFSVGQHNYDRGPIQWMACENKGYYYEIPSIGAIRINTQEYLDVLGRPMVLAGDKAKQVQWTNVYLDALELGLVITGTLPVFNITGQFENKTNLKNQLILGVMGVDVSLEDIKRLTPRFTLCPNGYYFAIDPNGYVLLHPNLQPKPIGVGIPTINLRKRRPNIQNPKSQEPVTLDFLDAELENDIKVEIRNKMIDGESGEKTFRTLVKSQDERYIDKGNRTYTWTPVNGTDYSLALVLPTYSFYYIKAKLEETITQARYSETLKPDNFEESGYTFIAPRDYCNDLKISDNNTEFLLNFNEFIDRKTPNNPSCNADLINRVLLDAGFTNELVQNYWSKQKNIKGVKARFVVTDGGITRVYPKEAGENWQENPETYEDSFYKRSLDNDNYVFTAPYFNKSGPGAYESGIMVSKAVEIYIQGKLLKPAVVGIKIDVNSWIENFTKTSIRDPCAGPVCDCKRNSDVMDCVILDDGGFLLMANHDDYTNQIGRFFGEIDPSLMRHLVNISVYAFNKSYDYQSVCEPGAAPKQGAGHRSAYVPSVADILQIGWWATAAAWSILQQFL
Chain of human Cav2.2 (P54289 947-1103 partner limits assumed): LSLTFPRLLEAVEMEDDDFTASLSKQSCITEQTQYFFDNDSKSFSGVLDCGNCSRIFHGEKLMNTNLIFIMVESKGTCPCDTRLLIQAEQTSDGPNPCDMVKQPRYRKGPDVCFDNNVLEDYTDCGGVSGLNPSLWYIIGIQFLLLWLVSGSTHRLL
Chain of human Cav2.2 (P54284 whole entry partner): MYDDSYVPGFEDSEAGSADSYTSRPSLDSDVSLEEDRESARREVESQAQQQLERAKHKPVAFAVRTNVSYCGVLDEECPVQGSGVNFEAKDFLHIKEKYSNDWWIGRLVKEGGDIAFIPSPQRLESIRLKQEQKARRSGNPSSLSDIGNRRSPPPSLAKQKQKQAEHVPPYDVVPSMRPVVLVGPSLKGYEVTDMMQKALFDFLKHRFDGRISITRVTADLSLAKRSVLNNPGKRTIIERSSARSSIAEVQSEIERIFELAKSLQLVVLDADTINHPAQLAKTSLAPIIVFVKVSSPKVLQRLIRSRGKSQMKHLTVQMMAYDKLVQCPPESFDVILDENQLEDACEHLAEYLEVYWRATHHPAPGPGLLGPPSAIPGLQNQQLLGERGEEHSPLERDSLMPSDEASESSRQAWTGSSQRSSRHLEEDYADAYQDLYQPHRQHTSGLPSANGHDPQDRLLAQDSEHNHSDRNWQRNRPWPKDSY

One test concerns the target human Cav2.2 (Homo sapiens, UniProt Q00975). Put plainly: Assessment of calcium channel activity using FLIPR (Ca2+ influx in IMR32 cells). The conditions noted are these: 3 minute pre-incubation with compound (*), 2 μM nifedipine, depolarized with 80 mM KCl. In kind it is cell-based. An outline of the steps: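 IMR32 neuroblastoma cells seeded at 1-1.2×10^5 cells/well and grown 48 h at 37 °C before FLIPR Ca2+ influx read. Percent inhibition at each concentration vs no-inhibitor activity; IC50 by non-linear sigmoidal dose-response fit.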
One may read the IC50 as the midpoint of a concentration-inhibition curve. With `O=C(N[C@@H]1CC[C@H]2CN(Cc3ccccc3)C[C@H]21)C1(c2ccccc2)CC1` [Example 28, N-[(3aS,4R,6aR)-2-benzyloctahydrocyclopenta[c]pyrrol-4-yl]-1-phenylcyclopropanecarboxamide], the IC50 was 13900 nM.

The test is the same for the next values; noted with them: 60 minute pre-incubation with compound, 2 μM nifedipine, depolarized with 80 mM KCl.
For the compound `c1ccc(CN2C[C@@H]3CC[C@@H](NC4CC4)[C@@H]3C2)cc1` (relative stereo) [Example 197, (3aS*,4R*,6aR*)-2-benzyl-N-cyclopropyloctahydrocyclopenta[c]pyrrol-4-amine], the IC50 came to 69700 nM.

Take `CCCN(CCC)[C@H]1CC[C@@H]2CN(S(=O)(=O)c3ccc(C(F)(F)F)cc3)C[C@@H]21` [Example 291, (3aR,4S,6aS)—N,N-dipropyl-2-{[4-(trifluoromethyl)phenyl]sulfonyl}octahydrocyclopenta[c]pyrrol-4-amine]: the IC50 turned out to be 4400 nM.

As to `CC(C)[C@@H](CC(=O)N[C@H]1CC[C@@H]2CN(S(=O)(=O)c3cccc(C(F)(F)F)c3)C[C@@H]21)NS(C)(=O)=O` [Example 515, (3R)-4-methyl-3-[(methylsulfonyl)amino]-N-((3aR,4S,6aS)-2-{[3-(trifluoromethyl)phenyl]sulfonyl}octahydrocyclopenta[c]pyrrol-4-yl)pentanamide], the IC50 is 3170 nM.

In the case of `CC(C)(C)C[C@H](N)C(=O)N[C@H]1CC[C@@H]2CN(S(=O)(=O)c3ccc(C(F)(F)F)cc3Cl)C[C@@H]21` [Example 429, N^1-((3aR,4S,6aS)-2-{[2-chloro-4-(trifluoromethyl)phenyl]sulfonyl}octahydrocyclopenta[c]pyrrol-4-yl)-4-methyl-L-leucinamide], the IC50 was 960 nM.

Regarding `O=S(=O)(N[C@H]1CC[C@H]2CN(Cc3cccc(C(F)(F)F)c3)C[C@H]21)c1cccc(C(F)(F)F)c1` (single isomer, unassigned) [Example 186, 3-(trifluoromethyl)-N-{(3aS*,4S*,6aR*)-2-[3-(trifluoromethyl)benzyl]octahydrocyclopenta[c]pyrrol-4-yl}benzenesulfonamide], the IC50 came out at 600 nM.

For the compound `O=C(N[C@H]1CC[C@H]2CN(CCC(c3ccc(F)cc3)c3ccc(F)cc3)C[C@H]21)C(C1CCCCC1)C1CCCCC1` [Example 65, N-{(3aS,4S,6aR)-2-[3,3-bis(4-fluorophenyl)propyl]octahydrocyclopenta[c]pyrrol-4-yl}-2,2-dicyclohexylacetamide], the IC50 was 4500 nM.

Turning to `CC(C)C[C@@H](C(=O)N[C@H]1CC[C@H]2CN(Cc3cccc(C(F)(F)F)c3)C[C@H]21)N(C)C(=O)OC(C)(C)C` [Example 153, N^2-(tert-butyloxycarbonyl)-N^2-methyl-N^1-{(3aS,4S,6aR)-2-[3-(trifluoromethyl)benzyl]octahydrocyclopenta[c]pyrrol-4-yl}-L-leucinamide], the IC50 is 400 nM.

As to `CC(C)C[C@@H](C(=O)N[C@@H]1CC[C@H]2CN(Cc3ccccc3)C[C@H]21)N(C)CC(C)(C)C` [Example 510, N^1-[(3aS,4R,6aR)-2-benzyloctahydrocyclopenta[c]pyrrol-4-yl]-N^2-methyl-N^2-neopentyl-L-leucinamide], the IC50 came out at 1680 nM.

`CCC[C@H](NCC(C)(C)C)C(=O)N[C@@H]1CC[C@H]2CN(S(=O)(=O)c3cccc(C(F)(F)F)c3)C[C@H]21` [Example 255, N^2-neopentyl-N^1-((3aS,4R,6aR)-2-{[3-(trifluoromethyl)phenyl]sulfonyl}octahydrocyclopenta[c]pyrrol-4-yl)-L-norvalinamide]: the IC50 was 550 nM.

The same test, now with this note: IMR-32, @ 10 μM, 3 minute pre-incubation (*), read-out: percent inhibition.
In general, inhibition refers to the drop in the measured response relative to a control, in per cent. As for `CC(C)C(C(=O)N1C[C@H]2CC[C@H](NCc3ccccc3)[C@H]2C1)c1ccccc1` (relative stereo) [Example 216, (3aR*,4S*,6aS*)-N-benzyl-2-(3-methyl-2-phenylbutanoyl)octahydrocyclopenta[c]pyrrol-4-amine], the inhibition at 10 µM stood at 85%.
